Experimental data from patent US20030040095A1, “Method for the production of pharmaceutically active recombinant proteins” (priority 2001, published 2003).

Columns and labels:
Assay type in all cases: cell-based
[1] = system: recombinant CHO cell line; experiment: tc-uPA activity in culture of recombinant CHO cells, chromogenic assay (Pefachrome UK); conditions: for Activity of tc-uPA: 1 L Spinner-flask culture, 37° C., 5 days; for Activity on the chromogenic substrate: average of four fermentations
Protocol: (§1) At first, the optimal conditions related to butyrate concentration and temperature in a laboratory scale were determined. Preliminary experiments aimed at optimizing the Na-butyrate concentration were performed in a 1 L culture of the recombinant CHO cell line (1×10^6 cells/ml), in order to achieve the best tc-uPA (HMW and LMW) production and the higher cell viability after 5 days of cultivation in spinner-flasks.
(§2) In table 1 are reported the cell viability and the uPA yield after 5 days cultivation in 1 L Spinner-flask culture at 37° C. and at different Na-butyrate concentrations. uPA activity was followed by a chromogenic assay using the Pefachrome® UK (54-46) (Pentapharm, LTD, Basel, Switzerland) as chromogenic substrate, according to the manufacturer's instructions; the cell viability was followed every day and measured microscopically after Trypan blue dye-exclusion method, as described in Doyle et al. A, Griffiths, J B and Newell, D G (Eds.) (1994), in “Cell & Tissue Culture: Laboratory Procedures”. John Wiley & Sons. New York.
(§3) A second set of experiments was performed at 1.2 mM butyrate, in a 5-days fermentation to determine the optimal temperature in a 2 L culture (1.5-2×10^6 cells/ml) of the recombinant CHO cell line in bioreactor.
When the cellular density reached values of about 2×10^6 living cells/ml, the cells were separated from the exhausted medium by tangential filtration (or centrifugation). Cells were then resuspended in the bioreactor in the same original volume of fresh medium CHOMaster® with the addition of sodium butyrate to achieve a final concentration of 1.2 mM.
The production of active u-PA (tc-UPA HMW and LMW) was monitored by a chromogenic test on a specific substrate, Pefachrome® UK. A progressive increase of the activity was observed up to maximal values as high as 7000 IU/ml, achieved after 4-5 days of fermentation. At this point the cells were harvested and subsequently discarded and the exhausted culture medium, containing tc-uPA, was further processed for purification.

[2] = system: recombinant CHO cell line; experiment: Cell viability of recombinant CHO culture, Trypan blue dye-exclusion; conditions: 1.2 mM butyrate, 32° C., after 12 days, 2 L bioreactor
[3] = system: recombinant CHO cell line; experiment: as above
Protocol: as §1, §2, §3

[4] = system: recombinant CHO cell line; experiment: tc-uPA activity in culture of recombinant CHO cells, chromogenic assay (Pefachrome UK); conditions: 1.2 mM butyrate, 32° C., after 12 days, 2 L bioreactor

## CCCC(=O)[O-].[Na+] [Na-Butyrate, sodium butyrate]
[1]; 0.6 mM Na-Butyrate
  Activity of tc-uPA: 526 IU/ml
[1]; 1.2 mM Na-Butyrate
  Activity of tc-uPA: 959 IU/ml
[1]; 1.2 mM Na-Butyrate, 32° C., 2 L bioreactor
  Activity of tc-uPA (5 days cultivation): 800 IU/ml
[1]; 1.2 mM Na-Butyrate, 34° C., 2 L bioreactor
  Activity of tc-uPA (5 days cultivation): 5043 IU/ml
[1]; 1.2 mM Na-Butyrate, 37° C. (control), 2 L bioreactor
  Activity of tc-uPA (5 days cultivation): 1830 IU/ml
[1]; 1.2 mM sodium butyrate, 34° C., after 4-5 days of fermentation, 2 L bioreactor
  maximal activity on Pefachrome UK: ≤ 7000 IU/ml
[1]; 2.5 mM Na-Butyrate
  Activity of tc-uPA: 361 IU/ml
[1]; 1 day after addition of 1.2 mM Na-butyrate, 34° C., 2 L bioreactor
  Activity on the chromogenic substrate: 155 ± 23%
[1]; 2 days after addition of 1.2 mM Na-butyrate, 34° C., 2 L bioreactor
  Activity on the chromogenic substrate: 662 ± 32%
[1]; 3 days after addition of 1.2 mM Na-butyrate, 34° C., 2 L bioreactor
  Activity on the chromogenic substrate: 1995 ± 13%
[1]; 4 days after addition of 1.2 mM Na-butyrate, 34° C., 2 L bioreactor
  Activity on the chromogenic substrate: 3170 ± 23%
[1]; 5 days after addition of 1.2 mM Na-butyrate, 34° C., 2 L bioreactor
  Activity on the chromogenic substrate: 5043 ± 13%
[2]
  Cell viability: 63%
[3]; 0.6 mM Na-Butyrate, 1 L Spinner-flask culture, 37° C., 5 days
  Cell viability: 83%
[3]; 1.2 mM Na-Butyrate, 1 L Spinner-flask culture, 37° C., 5 days
  Cell viability: 76%
[3]; 1.2 mM Na-Butyrate, 32° C., 5 days, 2 L bioreactor
  Cell viability: 84%
[3]; 1.2 mM Na-Butyrate, 34° C., 5 days, 2 L bioreactor
  Cell viability: 67%
[3]; 1.2 mM Na-Butyrate, 37° C. (control), 5 days, 2 L bioreactor
  Cell viability: 53%
[3]; 2.5 mM Na-Butyrate, 1 L Spinner-flask culture, 37° C., 5 days
  Cell viability: 56%
[3]; 1 day after addition of 1.2 mM Na-butyrate, 34° C., 2 L bioreactor, average of four fermentations
  Cell viability: 87 ± 6%
[3]; 2 days after addition of 1.2 mM Na-butyrate, 34° C., 2 L bioreactor, average of four fermentations
  Cell viability: 81 ± 12%
[3]; 3 days after addition of 1.2 mM Na-butyrate, 34° C., 2 L bioreactor, average of four fermentations
  Cell viability: 78 ± 15%
[3]; 4 days after addition of 1.2 mM Na-butyrate, 34° C., 2 L bioreactor, average of four fermentations
  Cell viability: 72 ± 14%
[3]; 5 days after addition of 1.2 mM Na-butyrate, 34° C., 2 L bioreactor, average of four fermentations
  Cell viability: 67 ± 10%
[4]
  activity (tc-uPA): 3961 U/ml
